# Laboratory results from PMC8478281, “Targeting the FtsZ Allosteric Binding Site with a Novel Fluorescence Polarization Screen, Cytological and Structural Approaches for Antibacterial Discovery” (Journal of Medicinal Chemistry, 2021).
# Values joined by “and” are separate entries in the source; they are usually repeats but may differ in a detail not shown here. Equal values may be shown once. Read-outs that look alike come from different tables or passages of the source.
# Legend:
# [1] = target: T1, stabilized FtsZ-GMPCPP polymers (Bacillus subtilis, UniProt P17865); assay: Fluorescence anisotropy screen with probe (S)-2 at two compound concentrations; format: binding; settings: probe (S)-2 3 μM, compound 20 and 200 μM
# T1 construct: made in house
# Description: Once the fluorescence method for ligand binding into the interdomain cleft was set up, we evaluated its potential to screen for FtsZ allosteric inhibitors. Complementary to this screen, cytological profiling tests of the identified binders allow ascertaining their ability to target FtsZ in bacterial cells. Fluorescence anisotropy measurements of probe (S)-2 at two concentrations of each tested compound (20 and 200 μM) were acquired; the solubility range of positively testing compounds was determined spectrophotometrically. […] The promiscuous inhibitors resveratrol,[40] plumbagin,[41] and tiplaxtinin[42] […] It should be noticed that aggregating compounds may sequester the protein or the probe or may scatter highly polarized light, potentially interfering with the fluorescence anisotropy measurements. Colored and fluorescent compounds can also interfere. Compounds initially testing positive in the anisotropy screen should thus be checked for any unexpected changes of the total fluorescence intensity in the same samples, as well as for any artefactual effects on replicates omitting FtsZ.
# (§1) Figure 4 Fluorescence anisotropy screen for FtsZ allosteric inhibitors combined with cell-based methods. (A) Screen for FtsZ inhibitors employing the fluorescence anisotropy of probe (S)-2 (3 μM) and stabilized FtsZ-GMPCPP polymers (8 μM binding sites). The anisotropy values of the partially bound probe (void black circles), the free probe (void gray circles), and the values with two concentrations of each compound, 20 μM (gray circles) and 200 μM (black circles) are shown. Control values with the corresponding concentrations of dimethyl sulfoxide (DMSO) vehicle (2% void and gray circles; 4%, black circle) are also shown. (B) Chemical structures of synthetic ligands 6–26. (C) Effects of low-affinity inhibitors 6, 7, and 9 on B. subtilis 168 cell division. Raw data plots (n ≥ 30) are shown with the mean values marked (statistics in Table S2). The cells were incubated for 3 h with each compound, and cell lengths were measured. (D) Representative phase-contrast images of cells after 3 h with 7 or 9 (0.75 mM each). (E) Cellular localization of FtsZ-GFP in B. subtilis SU570 following growth for 1.5 h in the absence (inset) and presence of 7 (0.2 mM). Bars, 10 μm.
# (§2) Competition assays were performed by measuring, through the decrease in fluorescence anisotropy, the displacement of the fluorescent probes from stabilized FtsZ polymers. Increasing concentrations of competing ligands were added to the mixtures of cross-linked FtsZ polymers (10–15 μM) with probe 1 (3 μM), 7–8 μM FtsZ polymers with probe (S)-2 (3 μM), or 2–3 μM FtsZ polymers with (R)-5 (3 μM). HEPES buffer with 10 mM MgCl2 and 0.1 mM GMPCPP was employed, with a final volume of 0.5 mL, and the anisotropy measured at 25 °C. Under these conditions, the initial fraction of the probe bound was between 0.4 and 0.5. The fraction of the probe bound (Vb) was calculated [drawing 1] where rfree and rmax are the anisotropy values of the free and bound probes, respectively, and R is the ratio between the fluorescence intensities of the bound and free probe (Table S1). The binding data were plotted against the competing ligand concentration and fitted by competition equilibrium of the ligand and the probe for the same binding site. The resulting system of equations[50] was numerically solved using the Equigra v. 5.0 program,[33] which provided the best-fitted value of the competitor binding constant.
# [2] = target: T2, stabilized polymers of FtsZ from B. subtilis (Bacillus subtilis, UniProt P17865); assay: Competition assay: displacement of probe (R)-5 from stabilized BsFtsZ-GMPCPP polymers; format: binding; settings: stabilized polymers of FtsZ from B. subtilis, probe (R)-5, mean ± SEM
# T2 construct: made in house
# Description: (§3) FtsZ (10–15 μM) was assembled in HEPES buffer, 10 mM MgCl2, 50 μM GMPCPP at 25 °C for 10 min, and then 0.15% (v/v) glutaraldehyde[36] (distilled grade for microscopy, TAAB Laboratories, U.K.) was added to the solution that was incubated at 25 °C for 10 min more. (This was the minimal glutaraldehyde concentration determined to stabilize FtsZ polymers specifically binding probe 1.) The remains of the cross-linking agent were quenched by adding 60 mM NaBH4, the sample was incubated on ice for 10 min and degassed.[36] Cross-linked polymers were centrifuged for 10 min at 8200g (5000 rpm) and 4 °C in 15 mL Falcon tubes employing a Rotina 380R (Hettich) centrifuge, the supernatant was removed and the pellet was resuspended in the same volume of HEPES buffer, 10 mM MgCl2, containing 5 μM GMPCPP. Fixed FtsZ polymers were active in binding assays after more than 2 days at 4 °C; they could also be frozen in liquid nitrogen with a small loss of binding capacity. […] Cross-linked polymers of SaFtsZ were similarly prepared.
# as §2
# [3] = Solubility in HEPES buffer with 2% DMSO, spectrophotometric; format: physicochemical; settings: HEPES buffer containing 2% DMSO, 25 °C, aqueous buffer, kinetic from dmso stock; HEPES buffer pH 6.8 containing 2% DMSO
# Description: 3.2. Solubility of Compounds. Stock solutions of compounds were prepared in
# DMSO (spectroscopic grade, Merck) a nd stored at -20 °C. Compound solubility in 50
# mM HEPES-KOH, 50 mM KCl, 1 mM EDTA, pH 6.8 (HEPES buffer) containing 2%
# DMSO was determined spectrophotometrically, monitoring the linear correlation
# between the absorbance and the compound concentration and the absence of light
# scattering. The solutions were optionally centrifuged at 100000 rpm for 20 min at 25 °C
# in a TLA100 rotor with a Beckman Optima Max -XP ultracentrifuge.
# B. subtilis [4] = assay: Minimal growth inhibitory concentration (broth macrodilution), B. subtilis; format: cell-based, Bacillus subtilis; settings: Bacillus subtilis, read-out: MIC B. subtilis
# Description: (§4) B. subtilis 168 and Staphylococcus spp. were grown in cation adjusted Mueller–Hinton broth (CAMHB; Becton, Dickinson and Company) at 37 °C. B. subtilis SU570 were grown in the same medium at 30 °C. In all cases, the cells were grown to an absorbance of 0.1–0.2 at 600 nm and then incubated either with the compounds or DMSO vehicle. Microscopy assays and cell measurement were performed as previously described.[31] MIC values were determined by a broth macrodilution method.[51] MBC values were determined as the lowest concentration of inhibitor at which there was a 99.9% reduction in colony-forming units/mL compared to the inoculum. To construct a S. aureus strain expressing FtsZ-mCherry, the plasmid pCN-ftsZmch[9] was electroporated into RN4220 and 0.1 μM cadmium chloride (Sigma-Aldrich) was used to induce the expression of the construct under the control of the Pcad promoter.
# S. aureus Mu50 [5] = assay: Minimal growth inhibitory concentration (broth macrodilution), S. aureus Mu50; format: cell-based, Staphylococcus aureus; settings: Staphylococcus aureus, MU50, read-out: MIC S. aureus Mu50
# Description: as §4
# S. aureus Mu50 [6] = assay: Minimal division inhibitory concentration, S. aureus Mu50; format: cell-based; settings: Staphylococcus aureus, MU50, read-out: MDC S. aureus Mu50
# Description: as §4
# B. subtilis [7] = assay: Minimal division inhibitory concentration and cell division phenotype, B. subtilis; format: cell-based, Bacillus subtilis; settings: for minimal effective concentration: Bacillus subtilis, read-out: MDC B. subtilis
# Description: as §4
# [8] = target: T3, stabilized FtsZ-GMPCPP polymers (BsFtsZ) (Bacillus subtilis, UniProt P17865); assay: Competition assay: displacement of probe (S)-2 from stabilized FtsZ-GMPCPP polymers; format: binding; settings: for Kd: (S)-2 3 μM, 8 μM binding sites
# T3 construct: made in house
# Description: as §3, §2
# B. subtilis 168 = assay: Cell length of B. subtilis 168 incubated with FtsZ inhibitors; format: cell-based, Bacillus subtilis; set-up: unit not given here; settings: B. subtilis 168, 3 h, mean and standard error, n ≥ 30
# Description: as §1, with “The anisotropy values of the partially bound probe (void black circles), the free probe (void gray circles), and the values with two concentrations of each compound, 20 μM (gray circles) and 200 μM (black circles) are shown.” left out, “(B) Chemical structures of synthetic ligands 6–26. (C) Effects of low-affinity inhibitors 6, 7, and 9 on B. subtilis 168 cell division.” left out
# as §4, with “MBC values were determined as the lowest concentration of inhibitor at which there was a 99.9% reduction in colony-forming units/mL compared to the inoculum.” left out, “promoter. […]” for “promoter.”
# T2 sequence (P17865 whole entry): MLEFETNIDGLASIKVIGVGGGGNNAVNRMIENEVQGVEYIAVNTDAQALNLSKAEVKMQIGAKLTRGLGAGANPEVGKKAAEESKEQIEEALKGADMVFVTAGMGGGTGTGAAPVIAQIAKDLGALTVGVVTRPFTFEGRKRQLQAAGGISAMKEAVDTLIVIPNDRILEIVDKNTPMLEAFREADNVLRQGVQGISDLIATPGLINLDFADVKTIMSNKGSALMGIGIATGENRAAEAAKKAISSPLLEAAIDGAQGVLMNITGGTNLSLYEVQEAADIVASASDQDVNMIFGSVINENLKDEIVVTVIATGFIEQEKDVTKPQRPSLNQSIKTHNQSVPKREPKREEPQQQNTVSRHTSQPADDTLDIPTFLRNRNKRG
# T3 sequence (P17865 whole entry): as above
# T1 sequence (P17865 whole entry): as above
structure (smiles),measurement,setting,value
CCN(CC)CCNc1nc(/C=C/c2ccc(Cl)cc2)nc2cc3ccccc3cc12 [zantrin Z3],"result of the anisotropy screen, in words",[1],no evidence of binding
NC(=O)c1c(F)ccc(OCCCc2cccc(C(F)(F)F)c2)c1F [Compound 23],Kd,[2]; read-out: KD,1.5 ± 0.1 µM
same,solubility,[3],50 µM
same,MIC,B. subtilis [4],10 µM
same,MIC,S. aureus Mu50 [5],50 µM
same,minimal effective concentration,S. aureus Mu50 [6],25 µM
same,minimal effective concentration,B. subtilis [7],5 µM
"OCc1nc2cc(Cl)cnc2s1 [CTPM, 6-(chloro[1,3]thiazolo[5,4-b]pyridin-2-yl)methanol, reference compound]",Kd,[8],1000 ± 100 µM
NC(=O)c1c(F)ccc(OCCc2cccc(C(F)(F)F)c2)c1F [Compound 22],Kd,[2]; read-out: KD,5.9 ± 0.4 µM
same,solubility,[3],> 100 µM
same,MIC,B. subtilis [4],50 µM
same,MIC,S. aureus Mu50 [5],200 µM
same,minimal effective concentration,S. aureus Mu50 [6],100 µM
same,minimal effective concentration,B. subtilis [7],15 µM
CN(C)CCC(Oc1ccc(F)c(C(N)=O)c1F)c1cccc(C(F)(F)F)c1 (stereo not shown) [Compound 24],Kd,[2]; KD,145 ± 10 µM
same,solubility,[3],> 1000 µM
same,MIC,B. subtilis [4],> 100 µM
same,MIC,S. aureus Mu50 [5],> 100 µM
same,minimal effective concentration,S. aureus Mu50 [6],> 100 µM
same,minimal effective concentration,B. subtilis [7],> 50 µM
"COc1ccc(F)c(C(N)=O)c1F [DFMBA, 2,6-difluoro-3-methoxybenzamide, reference compound]",Kd,[8],670 ± 50 µM
"Oc1ccc(/C=C/c2cc(O)cc(O)c2)cc1 [resveratrol, reference compound]","result of the anisotropy screen, in words",[1],weakly modified anisotropy and total fluorescence intensity
same,"inhibition of B. subtilis cell division, in words",B. subtilis [7],none of them impaired B. subtilis cell division
O=C(Oc1cc(OC(=O)c2cc(O)cc(O)c2)c2ccccc2c1)c1ccc(O)c(O)c1 [UCM44],"result of the anisotropy screen, in words",[1],marginal inhibitory effect
NC(=O)c1cccc(NCc2cccc(Cl)c2)c1 [Compound 6],solubility,[3],≥ 100 µM
same,length,B. subtilis 168; 0.5 mM,5.9 ± 0.3
same,length,B. subtilis 168; 0.75 mM,8.0 ± 0.2
same,"result of the anisotropy screen, in words",[1],weak binders
same,Kd,[8],233 µM and ~200 µM
"O=C(O)C(=O)c1cn(Cc2ccccc2)c2ccc(-c3ccc(OC(F)(F)F)cc3)cc12 [tiplaxtinin, reference compound]","result of the anisotropy screen, in words",[1],weakly modified anisotropy and total fluorescence intensity
same,"inhibition of B. subtilis cell division, in words",B. subtilis [7],none of them impaired B. subtilis cell division
CN(Cc1cccc(Cl)c1)c1cccc(C(N)=O)c1 [Compound 7],solubility,[3],≥ 100 µM
same,length,B. subtilis 168; 0.5 mM,8.5 ± 0.3
same,length,B. subtilis 168; 0.75 mM,24.7 ±0.8
same,"result of the anisotropy screen, in words",[1],weak binders
same,Kd,[8],159 µM and ~200 µM
same,fold lower concentration inhibiting B. subtilis division than 3-methoxybenzamide,B. subtilis [7]; 3-methoxybenzamide value from ref 44,~20 fold
O=C(O)CCN(Cc1ccccc1)Cc1cccc(Sc2ccccc2)c1 [PC170942],"result of the anisotropy screen, in words",[1],no evidence of binding
"Nc1nc2c(ncn2[C@@H]2O[C@H](COP(=O)(O)OP(=O)(O)O)[C@@H](O)[C@H]2O)c(=O)[nH]1 [GDP, guanosine diphosphate, reference compound]","displacement of (S)-2 from its binding site, in words",[8]; negative control,does not displace
CN(Cc1cccc(Cl)c1)c1ccc(C(N)=O)cc1 [Compound 10],solubility,[3],≥ 100 µM
same,"result of the anisotropy screen, in words",[1],weak binders
same,Kd,[8],250 µM and ~200 µM
"CC1=CC(=O)c2c(O)cccc2C1=O [plumbagin, reference compound]","result of the anisotropy screen, in words",[1],weakly modified anisotropy and total fluorescence intensity
same,"inhibition of B. subtilis cell division, in words",B. subtilis [7],none of them impaired B. subtilis cell division
NC(=O)c1ccc(NCc2cccc(Cl)c2)cc1 [Compound 9],solubility,[3],≥ 100 µM
same,length,B. subtilis 168; 0.5 mM,6.1 ± 0.3
same,length,B. subtilis 168; 0.75 mM,11.6 ±0.4
same,"result of the anisotropy screen, in words",[1],weak binders
same,Kd,[8],196 µM and ~200 µM
